Experimental data as given in ChEMBL document CHEMBL5370660, “Design of a Supersoft Topical JAK Inhibitor, Which Is Effective in Human Skin but Rapidly Deactivated in Blood” (J Med Chem, 2023).
In brackets after ≈: the same amount, converted by molar mass.

Assays:
[1] = target: T1, JAK3/JAK1 (Homo sapiens, UniProt P23458+P52333); assay: Inhibition of JAK1/3-mediated STAT5 phosphorylation in human M07E cells preincubated for 30 mins followed by IL-15 stimulation measured after 15 mins by flow cytometry; type: cell-based
T1 sequence (P23458 whole entry, one chain of several, the tested form may be a part): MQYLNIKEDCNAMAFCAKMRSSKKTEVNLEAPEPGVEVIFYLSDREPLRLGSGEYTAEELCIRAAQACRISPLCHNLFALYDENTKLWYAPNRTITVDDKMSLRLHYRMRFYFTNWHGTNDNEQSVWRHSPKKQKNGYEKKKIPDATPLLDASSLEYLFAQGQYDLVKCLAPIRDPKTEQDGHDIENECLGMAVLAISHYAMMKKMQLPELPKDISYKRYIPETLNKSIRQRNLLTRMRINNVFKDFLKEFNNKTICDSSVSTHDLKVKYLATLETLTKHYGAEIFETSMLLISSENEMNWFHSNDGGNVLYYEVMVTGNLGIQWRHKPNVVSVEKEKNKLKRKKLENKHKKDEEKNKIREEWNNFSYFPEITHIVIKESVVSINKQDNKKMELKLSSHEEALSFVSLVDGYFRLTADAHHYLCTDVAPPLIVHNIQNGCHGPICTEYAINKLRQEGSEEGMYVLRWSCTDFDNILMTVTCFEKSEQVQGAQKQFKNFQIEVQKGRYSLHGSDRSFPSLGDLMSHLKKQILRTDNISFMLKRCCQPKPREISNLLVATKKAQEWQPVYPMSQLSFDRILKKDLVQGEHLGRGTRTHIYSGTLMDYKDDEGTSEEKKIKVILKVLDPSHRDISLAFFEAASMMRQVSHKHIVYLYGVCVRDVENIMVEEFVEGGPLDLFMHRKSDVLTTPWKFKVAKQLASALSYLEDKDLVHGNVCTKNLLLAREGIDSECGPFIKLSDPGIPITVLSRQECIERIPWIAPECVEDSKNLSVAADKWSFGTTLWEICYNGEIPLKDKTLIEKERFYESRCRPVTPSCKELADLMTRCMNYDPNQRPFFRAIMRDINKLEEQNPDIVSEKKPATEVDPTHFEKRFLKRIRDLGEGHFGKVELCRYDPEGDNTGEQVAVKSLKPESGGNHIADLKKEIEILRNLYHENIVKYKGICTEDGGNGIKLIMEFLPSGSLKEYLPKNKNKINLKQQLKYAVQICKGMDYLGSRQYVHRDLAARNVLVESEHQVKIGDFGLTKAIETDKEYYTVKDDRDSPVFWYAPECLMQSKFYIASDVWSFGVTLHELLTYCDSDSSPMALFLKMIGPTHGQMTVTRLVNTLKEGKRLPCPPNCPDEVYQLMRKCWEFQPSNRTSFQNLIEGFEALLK

[2] = target: Non-receptor tyrosine-protein kinase TYK2 (Homo sapiens, UniProt P29597); assay: Inhibition of GST-fused TYK2 (888 to 1187 residues)(unknown origin) using FITC-Ahr-KKSRGDYMTMQIG-NH2 peptide as substrate incubated for 30 mins in presence of ATP by caliper microfluidic mobility shift assay
Sequence of Non-receptor tyrosine-protein kinase TYK2 (P29597 whole entry, the tested form may be a part): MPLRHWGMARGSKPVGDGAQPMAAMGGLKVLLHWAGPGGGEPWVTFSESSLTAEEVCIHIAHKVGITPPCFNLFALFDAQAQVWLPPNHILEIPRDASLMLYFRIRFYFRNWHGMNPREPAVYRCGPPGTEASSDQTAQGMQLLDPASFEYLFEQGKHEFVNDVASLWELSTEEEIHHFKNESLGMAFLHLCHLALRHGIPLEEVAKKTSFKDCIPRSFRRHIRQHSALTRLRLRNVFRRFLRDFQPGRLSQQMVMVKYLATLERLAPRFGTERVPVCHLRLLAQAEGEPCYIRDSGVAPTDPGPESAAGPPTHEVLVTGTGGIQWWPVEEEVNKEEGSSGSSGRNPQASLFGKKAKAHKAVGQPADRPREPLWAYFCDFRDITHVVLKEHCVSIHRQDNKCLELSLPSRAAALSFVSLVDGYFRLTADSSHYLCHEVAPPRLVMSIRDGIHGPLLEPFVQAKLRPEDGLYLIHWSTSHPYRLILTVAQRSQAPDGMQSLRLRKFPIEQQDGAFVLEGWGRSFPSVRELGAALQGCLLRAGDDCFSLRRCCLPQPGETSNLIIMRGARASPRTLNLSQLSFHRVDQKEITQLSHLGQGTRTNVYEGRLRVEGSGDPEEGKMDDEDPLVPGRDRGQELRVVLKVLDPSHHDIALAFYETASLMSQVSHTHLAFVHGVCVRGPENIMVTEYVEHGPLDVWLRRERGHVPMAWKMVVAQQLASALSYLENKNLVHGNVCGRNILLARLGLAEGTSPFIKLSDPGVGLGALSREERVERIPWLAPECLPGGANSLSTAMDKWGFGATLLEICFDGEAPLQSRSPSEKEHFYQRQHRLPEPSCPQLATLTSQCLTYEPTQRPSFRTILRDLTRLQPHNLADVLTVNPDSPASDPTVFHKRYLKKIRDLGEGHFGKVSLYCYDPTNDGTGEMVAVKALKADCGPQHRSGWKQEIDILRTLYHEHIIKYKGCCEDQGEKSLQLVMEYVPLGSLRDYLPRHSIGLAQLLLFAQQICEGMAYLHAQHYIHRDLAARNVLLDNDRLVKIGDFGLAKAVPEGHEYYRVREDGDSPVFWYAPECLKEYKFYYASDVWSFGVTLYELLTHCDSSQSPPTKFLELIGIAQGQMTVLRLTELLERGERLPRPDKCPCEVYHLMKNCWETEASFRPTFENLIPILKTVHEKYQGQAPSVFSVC

[3] = Lipophilicity, LogD of compound; type: physicochemical; details: octanol/water
[4] = Metabolic stability in human skin S9 fraction measured upto 120 mins by LC-MS analysis; type: ADME, subcellular
[5] = target: T1, JAK3/JAK1; assay: Inhibition of JAK1/3-mediated STAT5 phosphorylation in human whole blood incubated for 30 mins followed by IL-2 addition measured after 15 mins by flow cytometry; type: tissue-based
[6] = target: T2, Tyrosine-protein kinase JAK3 (Homo sapiens, UniProt P52333); assay: Inhibition of GST-fused JAK3 (811 to 1124 residues)(unknown origin) using Carboxyfluorescein-Ahx-GGEEEEYFELVKKKK peptide as substrate incubated for 30 mins in presence of ATP by caliper microfluidic mobility shift assay
T2 sequence (P52333 whole entry): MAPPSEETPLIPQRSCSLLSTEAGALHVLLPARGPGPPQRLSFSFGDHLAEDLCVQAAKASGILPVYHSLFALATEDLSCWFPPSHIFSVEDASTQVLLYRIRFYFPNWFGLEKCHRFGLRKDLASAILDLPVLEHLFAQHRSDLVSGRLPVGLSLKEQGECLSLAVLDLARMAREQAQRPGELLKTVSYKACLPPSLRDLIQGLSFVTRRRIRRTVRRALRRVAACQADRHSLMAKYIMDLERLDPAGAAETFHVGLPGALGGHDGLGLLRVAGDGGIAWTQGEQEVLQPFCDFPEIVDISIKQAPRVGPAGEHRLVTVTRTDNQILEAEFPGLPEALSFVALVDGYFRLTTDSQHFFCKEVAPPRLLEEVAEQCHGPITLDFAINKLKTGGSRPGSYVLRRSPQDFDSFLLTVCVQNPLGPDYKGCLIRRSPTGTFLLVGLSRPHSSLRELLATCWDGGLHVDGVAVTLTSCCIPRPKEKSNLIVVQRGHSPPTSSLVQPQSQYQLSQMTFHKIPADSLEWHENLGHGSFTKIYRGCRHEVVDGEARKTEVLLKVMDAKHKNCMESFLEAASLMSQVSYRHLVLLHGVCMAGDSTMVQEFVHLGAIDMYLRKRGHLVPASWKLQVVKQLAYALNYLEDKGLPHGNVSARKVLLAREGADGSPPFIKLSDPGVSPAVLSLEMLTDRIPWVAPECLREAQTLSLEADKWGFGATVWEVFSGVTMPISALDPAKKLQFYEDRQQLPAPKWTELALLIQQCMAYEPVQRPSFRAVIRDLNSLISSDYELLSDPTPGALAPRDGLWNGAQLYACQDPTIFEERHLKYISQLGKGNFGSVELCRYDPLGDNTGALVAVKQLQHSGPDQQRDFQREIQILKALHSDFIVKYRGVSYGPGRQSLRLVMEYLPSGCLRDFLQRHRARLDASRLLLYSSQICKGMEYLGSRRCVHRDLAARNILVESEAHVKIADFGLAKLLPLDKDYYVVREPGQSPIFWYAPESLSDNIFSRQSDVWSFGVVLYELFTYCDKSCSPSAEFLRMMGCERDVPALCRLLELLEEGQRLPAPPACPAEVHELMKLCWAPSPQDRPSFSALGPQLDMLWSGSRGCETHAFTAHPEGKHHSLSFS

[7] = target: Tyrosine-protein kinase JAK2 (Homo sapiens, UniProt O60674); assay: Inhibition of GST-fused JAK2 (808 to 1132 residues)(unknown origin) using Carboxyfluorescein-Ahx-GGEEEEYFELVKKKK peptide as substrate incubated for 30 mins in presence of ATP by caliper microfluidic mobility shift assay
Sequence of Tyrosine-protein kinase JAK2 (O60674 whole entry, the tested form may be a part): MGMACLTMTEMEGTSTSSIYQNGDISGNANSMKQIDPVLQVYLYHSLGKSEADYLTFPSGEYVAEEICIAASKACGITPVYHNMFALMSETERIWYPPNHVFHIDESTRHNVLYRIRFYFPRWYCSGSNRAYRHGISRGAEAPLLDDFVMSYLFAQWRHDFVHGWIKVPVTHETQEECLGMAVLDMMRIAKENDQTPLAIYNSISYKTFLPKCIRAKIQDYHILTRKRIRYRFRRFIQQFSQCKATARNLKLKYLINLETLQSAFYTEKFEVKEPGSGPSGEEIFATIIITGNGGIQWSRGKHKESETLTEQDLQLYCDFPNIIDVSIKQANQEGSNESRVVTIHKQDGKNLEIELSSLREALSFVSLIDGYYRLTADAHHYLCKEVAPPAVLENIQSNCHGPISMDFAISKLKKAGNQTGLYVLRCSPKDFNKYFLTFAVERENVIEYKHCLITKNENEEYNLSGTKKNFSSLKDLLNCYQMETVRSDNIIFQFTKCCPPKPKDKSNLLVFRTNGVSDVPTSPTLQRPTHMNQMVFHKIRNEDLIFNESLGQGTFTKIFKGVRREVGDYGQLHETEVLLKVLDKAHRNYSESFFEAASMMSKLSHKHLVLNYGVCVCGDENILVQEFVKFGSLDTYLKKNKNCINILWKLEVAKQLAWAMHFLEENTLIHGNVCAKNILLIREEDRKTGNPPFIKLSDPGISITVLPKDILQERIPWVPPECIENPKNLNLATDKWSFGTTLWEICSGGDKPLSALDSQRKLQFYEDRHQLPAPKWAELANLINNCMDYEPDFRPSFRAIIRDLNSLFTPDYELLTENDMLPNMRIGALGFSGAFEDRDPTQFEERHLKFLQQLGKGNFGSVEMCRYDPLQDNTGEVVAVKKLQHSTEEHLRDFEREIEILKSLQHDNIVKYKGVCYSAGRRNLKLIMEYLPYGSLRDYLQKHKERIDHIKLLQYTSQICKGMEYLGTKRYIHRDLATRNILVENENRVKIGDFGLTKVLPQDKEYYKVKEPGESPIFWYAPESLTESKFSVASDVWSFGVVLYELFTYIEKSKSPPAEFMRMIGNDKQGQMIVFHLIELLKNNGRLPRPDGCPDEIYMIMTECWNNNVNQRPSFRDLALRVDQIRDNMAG

[8] = target: JAK2/JAK1 (Homo sapiens, UniProt O60674+P23458); assay: Inhibition of JAK1/2-mediated STAT1 phosphorylation in human M07E cells preincubated for 30 mins followed by IFN-alpha stimulation measured after 15 mins by flow cytometry; type: cell-based
Sequence of JAK2/JAK1 (P23458 whole entry, the tested form may be a part): as the sequence (P23458 whole entry, one chain of several, the tested form may be a part) above
Sequence of JAK2/JAK1 (O60674 whole entry, the tested form may be a part): as the sequence (O60674 whole entry, the tested form may be a part) above

[9] = target: Tyrosine-protein kinase JAK1 (Homo sapiens, UniProt P23458); assay: Inhibition of GST-fused JAK1 (866 to 1154 residues)(unknown origin) using FITC-Ahr-KKSRGDYMTMQIG-NH2 peptide as substrate incubated for 30 mins in presence of ATP by caliper microfluidic mobility shift assay
Sequence of Tyrosine-protein kinase JAK1 (P23458 whole entry, the tested form may be a part): as the sequence (P23458 whole entry, one chain of several, the tested form may be a part) above

[10] = Stability in human whole blood assessed as half life at 1 uM incubated upto 8 hrs by LC-MS/MS analysis; type: ADME, tissue-based
[11] = Saturation solubility of compound in PEG400/transcutol/benzyl alcohol/water mixture using amorphous form of sample; type: physicochemical
[12] = Stability of compound under temperature stress assessed as compound degradation at 50 degreeC measured after 7 days using amorphous form of sample; type: physicochemical; details: time 7 day; read-out: Drug degradation
[13] = Permeability of compound; type: ADME; details: not told; read-out: permeability
[14] = Solubility of the compound at pH 6.8 using amorphous form of sample; type: physicochemical; details: buffer
[15] = Drug penetration in fresh human skin explant using Franz diffusion cell model assessed as concentration of 2-(6-((5-carbamoyl-4-((2-methoxyphenyl)amino)pyridin-2-yl)amino)pyridin-3-yl)acetic acid metabolite in receiver fluid at 3 % administered topically preincubated overnight followed by fresh media replacement in receiver fluid without compound and subsequently stimulated with IL-4/IL-13 measured after 24 hrs by LC-MS/MS analysis; type: ADME, tissue-based, Skin of body; details: topical_or_ocular
[16] = Stability of compound under temperature stress assessed as compound degradation at 50 degreeC measured after 7 days using crystalline form of sample; type: physicochemical; details: time 7 day; read-out: Drug degradation
[17] = Stability of compound under light stress assessed as compound decomposition under sunlight with intensity of 4000 KJ/m2, irradiation of 250 W/m2, wavelength of >290 nm, temperature of 37 degreeC for 4 hrs using crystalline form of sample; type: ADME; details: read-out: Drug degradation
[18] = Thermodynamic solubility of the compound at pH 6.8 using crystalline form of sample; type: physicochemical; details: read-out: Therm_solubility
[19] = Saturation solubility of compound in PEG400/transcutol/benzyl alcohol/water mixture using crystalline form of sample; type: physicochemical
[20] = Stability of compound in fresh human skin explant using Franz diffusion cell model assessed as compound concentration in dermis at 3 % administered topically preincubated overnight followed by fresh media replacement in receiver fluid without compound and subsequently stimulated with IL-4/IL-13 measured after 40 hrs by LC-MS/MS analysis; type: ADME, tissue-based, Skin of body; details: topical or ocular, read-out: Ct

Structure (SMILES)	IC50 [1] [nM]	IC50 [2] [nM]	logD [3]	half-life [4] [min]	IC50 [5] [nM]	IC50 [6] [nM]	IC50 [7] [nM]	IC50 [8] [nM]	IC50 [9] [nM]	half-life at 1 µM [10] [min]	solubility thermodynamic [11] [µg/mL]	degraded at 168 h [12] [%]	Papp [13] [×10⁻⁶ cm/s]	solubility [14] [µg/mL]	Drug uptake [15] [µM]	degraded at 168 h [16] [%]	degraded at 4 h [17] [%]	solubility thermodynamic [18] [µg/mL]	solubility thermodynamic [19] [µg/mL]	concentration at 40 h, 3 % [20] [µM]
COCCOC(=O)Cc1ccc(Nc2cc(Nc3ccccc3OC)c(C(N)=O)cn2)nc1	63	2	2.9	5	> 30000	4	6	14	6	–	–	–	–	–	–	–	–	–	–	–
CCOC(=O)CCc1ccc(Nc2cc(Nc3ccccc3Cl)c(C(N)=O)cn2)nc1	171	37	–	8	2500	25	25	185	27	–	–	–	–	–	–	–	–	–	–	–
COC[C@H](C)OC(=O)Cc1ccc(Nc2cc(Nc3ccccc3OC)c(C(N)=O)cn2)nc1	115	–	–	12	> 50000	1	2	58	1	–	–	–	–	–	–	–	–	–	–	–
CC(C)OC(=O)Cc1ccc(Nc2cc(Nc3ccccc3Cl)c(C(N)=O)cn2)nc1	71	–	–	67	1200	28	27	115	29	65	–	–	–	–	–	–	–	–	–	–
CCOC(=O)Cc1ccc(Nc2cc(Nc3ccccc3Cl)c(C(N)=O)cn2)nc1	24	–	4.6	14	12200	18	17	60	20	7	8700 (≈ 20400 µM)	1	11	0.1 (≈ 0.235 µM)	–	–	–	–	–	–
NC(=O)c1cnc(Nc2ccc(CC(=O)O)cn2)cc1Nc1ccccc1Cl	2580	10	0.4	< 240	> 50000	10	19	3860	9	> 240	–	–	0.9	–	–	–	–	–	–	–
CCOC(=O)COc1ccc(Nc2cc(Nc3ccccc3Cl)c(C(N)=O)cn2)nc1	141	54	–	4	7530	69	76	185	69	–	–	–	–	–	–	–	–	–	–	–
COc1ccccc1Nc1cc(Nc2ccc(CC(=O)O[C@@H]3CCOC3)cn2)ncc1C(N)=O	67	2	–	8	> 50000	3	4	48	3	–	–	–	–	–	–	–	–	–	–	–
COc1ccccc1Nc1cc(Nc2ccc(CC(=O)O[C@H]3CCOC3)cn2)ncc1C(N)=O	89	2	3	39	16000	5	5	44	5	5	–	–	20	–	0.124	2.4	3.3	31 (≈ 66.9 µM)	> 18000	54
CCOC(=O)Cc1ccc(Nc2cc(Nc3ccccc3OC)c(C(N)=O)cn2)nc1	80	21	2.9	12	10200	56	26	58	19	5	–	–	28	–	–	2	0	1 (≈ 2.37 µM)	≥ 9000	–
NC(=O)c1cnc(Nc2cccc(O)n2)cc1Nc1ccccc1Cl	–	–	–	> 200	–	–	–	> 10000	–	> 60	–	–	–	–	–	–	–	–	–	–
CCOC(=O)c1ccc(Nc2cc(Nc3ccccc3Cl)c(C(N)=O)cn2)nc1	189	–	–	–	10300	170	110	288	120	–	–	–	–	–	–	–	–	–	–	–
